The target of experiment [1] is TNF-α converting enzyme (TACE) (Homo sapiens, UniProt P78536). The experiment is described as follows: Test procedure for measuring TACE inhibition (fluorescent peptidyl substrate). It is filed as biochemical.
Experiment [2] addresses MMP-13 (Homo sapiens, UniProt P45452). The experiment is described as follows: MMP-13 inhibition (thiopeptide or fluorescent peptide substrate). It is filed as biochemical. The following applies: for inhibition at 10 µM: % @ 10µM per footnote a. From the text:
Alternatively, a fluorescent peptide substrate is used.

The target in experiment [3] is T1, MMP-1 (Homo sapiens, UniProt P03956).
T1 sequence (P03956 100-469): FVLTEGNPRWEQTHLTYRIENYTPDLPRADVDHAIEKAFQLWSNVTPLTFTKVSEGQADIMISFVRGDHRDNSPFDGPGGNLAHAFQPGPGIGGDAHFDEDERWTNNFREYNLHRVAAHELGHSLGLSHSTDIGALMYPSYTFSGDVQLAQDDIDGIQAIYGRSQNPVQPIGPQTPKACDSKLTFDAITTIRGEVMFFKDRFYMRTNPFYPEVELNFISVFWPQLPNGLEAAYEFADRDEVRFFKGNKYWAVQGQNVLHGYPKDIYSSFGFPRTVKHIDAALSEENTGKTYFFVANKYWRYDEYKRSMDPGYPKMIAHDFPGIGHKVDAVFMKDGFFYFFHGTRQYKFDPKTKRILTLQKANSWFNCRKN
The experiment is described as follows: MMP-1 inhibition (thiopeptide or fluorescent peptide substrate). The following applies: for inhibition at 10 µM: read-out: MMP1.
Experimental: (§1) The enzyme activity is measured by the rate of the color increase. The thiopeptide substrate is made up fresh as a 20 mM stock in 100% DMSO and the DTNB is dissolved in 100% DMSO as a 100 mM stock and stored in the dark at room temperature. Both the substrate and DTNB are diluted together to 1 mM with substrate buffer (50 mM HEPES pH 7.5, 5 mM CaCl2) before use. The stock of enzyme is diluted with buffer (50 mM HEPES, pH 7.5, 5 mM CaCl2, 0.02% Brij) to the desired final concentration.
(§2) Alternatively, a fluorescent peptide substrate is used. In this test procedure, the peptide substrate contains a fluorescent group and a quenching group. Upon cleavage of the substrate by an MMP, the fluorescence that is generated is quantitated on the fluorescence plate reader. The assay is run in HCBC assay buffer (50mM HEPES, pH 7.0, 5 mM Ca^+2, 0.02% Brij, 0.5% Cysteine), with human recombinant MMP-1, MMP-9, or MMP-13. The substrate is dissolved in methanol and stored frozen in 1 mM aliquots. For the assay, substrate and enzymes are diluted in HCBC buffer to the desired concentrations. Compounds are added to the 96 well plate containing enzyme and the reaction is started by the addition of substrate.
(§3) For either the thiopeptide or fluorescent peptide test procedures, the slope of the line is calculated and represents the reaction rate. […] The mean (x±sem) of the control rate is calculated and compared for statistical significance (p<0.05) with drug-treated rates using Dunnett's multiple comparison test.

The target of experiment [4] is MMP-9 (Homo sapiens, UniProt P14780). The experiment is described as follows: MMP-9 inhibition (thiopeptide or fluorescent peptide substrate). The following applies: for inhibition at 10 µM: read-out: MMP9.
Chain of MMP-9 (P14780 94-707): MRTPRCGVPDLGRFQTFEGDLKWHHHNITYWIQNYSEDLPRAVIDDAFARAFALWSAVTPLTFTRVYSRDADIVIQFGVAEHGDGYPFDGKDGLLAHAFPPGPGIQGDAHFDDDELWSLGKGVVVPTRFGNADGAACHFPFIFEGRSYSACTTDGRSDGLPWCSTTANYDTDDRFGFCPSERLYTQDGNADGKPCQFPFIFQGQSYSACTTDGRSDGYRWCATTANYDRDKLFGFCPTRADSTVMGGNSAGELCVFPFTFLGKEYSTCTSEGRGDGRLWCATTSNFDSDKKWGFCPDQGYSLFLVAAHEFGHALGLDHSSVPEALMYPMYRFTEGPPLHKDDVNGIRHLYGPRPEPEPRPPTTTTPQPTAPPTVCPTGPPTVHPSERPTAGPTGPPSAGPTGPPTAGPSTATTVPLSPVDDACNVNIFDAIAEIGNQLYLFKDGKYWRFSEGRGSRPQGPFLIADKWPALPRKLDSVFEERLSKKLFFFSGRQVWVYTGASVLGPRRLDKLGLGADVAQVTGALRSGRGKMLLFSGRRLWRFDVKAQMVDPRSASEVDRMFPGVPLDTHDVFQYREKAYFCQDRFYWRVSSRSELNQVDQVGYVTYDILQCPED
Experimental: as §1, §2, §3
In experiment [5] the test system is THP-1 cells. The experiment is described as follows: Human monocytic THP-1 cell differentiation assay for soluble proteins (THP soluble protein assay), LPS-stimulated, TNF-α ELISA. It is filed as cell-based. The note with it: for THP (% inhibition): Table 1, concentration not given; for inhibition at 3 µM: Homo sapiens, THP-1; at 3 uM; percent change from vehicle positive control; read-out: TNFalpha at 3 uM) THP (percent change). (In general: ELISA stands for enzyme-linked immunosorbent assay.)

Setting [6] is: second table, IC50 (nM) per footnote a.

Structures are written as SMILES. Read-outs that look alike come from different tables or passages of the source.

Chain of TNF-α converting enzyme (TACE) (P78536 215-824): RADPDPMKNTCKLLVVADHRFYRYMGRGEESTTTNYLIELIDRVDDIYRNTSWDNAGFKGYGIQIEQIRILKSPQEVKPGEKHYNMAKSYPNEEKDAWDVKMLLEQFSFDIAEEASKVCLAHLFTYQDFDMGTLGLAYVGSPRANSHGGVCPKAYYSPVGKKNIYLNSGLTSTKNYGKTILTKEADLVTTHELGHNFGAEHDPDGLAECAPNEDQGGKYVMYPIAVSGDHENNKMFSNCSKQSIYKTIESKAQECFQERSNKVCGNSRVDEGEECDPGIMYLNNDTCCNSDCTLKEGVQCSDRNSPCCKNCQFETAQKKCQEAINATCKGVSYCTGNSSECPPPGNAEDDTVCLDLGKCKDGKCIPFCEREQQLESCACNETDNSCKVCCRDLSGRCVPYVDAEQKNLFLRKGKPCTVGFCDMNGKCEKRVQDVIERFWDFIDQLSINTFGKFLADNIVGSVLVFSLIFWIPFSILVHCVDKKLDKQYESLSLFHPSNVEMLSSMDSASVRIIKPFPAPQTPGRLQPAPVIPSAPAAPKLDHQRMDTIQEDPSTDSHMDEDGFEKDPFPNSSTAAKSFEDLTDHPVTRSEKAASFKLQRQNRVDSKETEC

Take `CC#CCOc1ccc(S(=O)(=O)C(C)(Cc2cccnc2)C(=O)NO)cc1` (stereo not shown) [Example 3, 2-(4-But-2-ynyloxy-phenylsulfonyl)-N-hydroxy-2-methyl-3-pyridin-3-ylpropionamide]: the IC50 stood at 15.7 nM in experiment [1] (Table 1); 69 nM in experiment [2] (Table 1, read-out: MMP13 IC50); 1400 nM in experiment [3]; 142 nM in experiment [4]. In addition, in experiment [5], the “THP (% inhibition)” value turned out to be 14%.
For `CC#CCOc1ccc(SC(C(=O)NO)c2ccccc2)cc1` (stereo not shown) [Example 111, 2-{[4-(2-Butynyloxy)phenyl]sulfanyl}-2-phenyl-N-hydroxyacetamide], the IC50 in experiment [1] (setting [6]) came to 50 nM. Besides, the inhibition at 10 µM came out at 0.8% in experiment [2] (read-out: MMP13), 6.6% in experiment [3] and 13.5% in experiment [4]. The inhibition at 3 µM in experiment [5] was -10%.
With `CC#CCOc1ccc([S@@+]([O-])[C@@H](CCCCCC)C(=O)NO)cc1` [Example 8, (S)-2-[(S)-[4-(2-Butynyloxy)phenylsulfinyl)]-N-hydroxyoctanamide], the IC50 in experiment [1] (Table 1) amounted to 12.4 nM; in experiment [2] (Table 1, read-out: MMP13 IC50) it was 150 nM; in experiment [3], 3200 nM; in experiment [4], 1000 nM. Moreover, the “THP (% inhibition)” value in experiment [5] worked out at 35%.
`CC#CCOc1ccc(SC(C(=O)NO)c2ccc(Cl)cc2)cc1` (stereo not shown) [Example 80, 2-{[4-(2-butynyloxy)phenyl]sulfanyl}-2-(4-chlorophenyl)-N-hydroxyacetamide] came in with an IC50 in experiment [1] (setting [6]) of 102 nM. Besides, the values for the inhibition at 10 µM in experiment [2] (read-out: MMP13), in experiment [3] and in experiment [4] were 48.8%, 0% and 10.9%, respectively. Moreover, the inhibition at 3 µM in experiment [5] amounted to 4%.
Taken in the same sequence, the figures for `CC#CCOc1ccc(SC(C(=O)NO)C(C)C)cc1` (stereo not shown) [Example 107, 2-{[4-(2-Butynyloxy)phenyl]sulfanyl}-2-isopropyl-N-hydroxyacetamide] were 157 nM, 59.4%, 2.8%, 56.8% and -13%.
Taken in the same sequence, the figures for `CC#CCOc1ccc([S+]([O-])[C@@H](C(=O)NO)c2ccccc2)cc1` (stereo partly shown) [Example 112, R-2-{[4-(2-butynyloxy)phenyl]sulfinyl}-2-phenyl-N-hydroxyacetamide] were 28 nM, 23.6%, 9.9%, 8.2% and 15%.
The like results for `CC#CCOc1ccc(S(=O)(=O)C(C(=O)NO)c2ccc(F)cc2)cc1` (stereo not shown) [Example 97, 2-{[4-(2-butynyloxy)phenyl]sulfonyl}-2-(4-fluorophenyl)-N-hydroxyacetamide] were, in that order, 109 nM, 47.4%, 0.5%, 0.5% and 10%.
For `CC#CCOc1ccc([S@+]([O-])[C@@H](CCCCCC)C(=O)NO)cc1` [Example 7, (S)-2-[(R)-[4-(2-Butynyloxy)phenylsulfinyl)]-N-hydroxyoctanamide], the IC50 in experiment [1] (Table 1) was 4.3 nM; in experiment [2] (Table 1, read-out: MMP13 IC50) it was 900 nM; in experiment [3], 3000 nM; in experiment [4], 1500 nM. In experiment [5], the “THP (% inhibition)” value is 67%.
With `CC#CCOc1ccc(S(=O)(=O)C(C(=O)NO)C(C)C)cc1` (stereo not shown) [Example 110, 2-{[4-{2-butynyloxy)phenyl]sulfonyl}-2-isopropyl-N-hydroxyacetamide], the IC50 in experiment [1] (setting [6]) was determined as 17 nM; in experiment [2] (IC50, read-out: MMP13) it was 1260 nM; in experiment [4], 5140 nM. Besides, in experiment [3], the inhibition at 10 µM was found to be 39.6%. In experiment [5], the inhibition at 3 µM worked out at 25%.
For `CC#CCOc1ccc(S(=O)(=O)C(C)(Cc2ccc(OCCN3CCCCC3)cc2)C(=O)NO)cc1` (stereo not shown) [Example 1, 2-(4-But-2-ynyloxy-benzenesulfonyl)-N-hydroxy-2-methyl-3-[4-(2-piperidin-1-yl-ethoxy)-phenyl]-propionamide], the IC50 came out at 191 nM in experiment [1] (Table 1); 200 nM in experiment [2] (Table 1, read-out: MMP13 IC50); 2000 nM in experiment [3]; 180 nM in experiment [4]. Further, the “THP (% inhibition)” value in experiment [5] stood at 25%.
Taken in the same sequence, the figures for `CC#CCOc1ccc(S(=O)(=O)C(C)(Cc2ccc(-c3ccccc3)cc2)C(=O)NO)cc1` (stereo not shown) [Example 2, 3-Biphenyl-4-yl-2-(4-But-2-ynyloxy-phenylsulfonyl)-N-hydroxy-2-methyl-propionamide] were 207 nM, 597 nM, 2200 nM, 207 nM and 5%.
The like results for `CC#CCOc1ccc(SC(CCCCCC)C(=O)NO)cc1` (stereo not shown) [Example 6, 2-(4-But-2-ynyloxy-phenylsulfanyl)-octanoic acid hydroxamide] were, in that order, 105 nM, 2000 nM, 15000 nM, 3000 nM and 5%.
As to `CC#CCOc1ccc(S(=O)(=O)C(C(=O)NO)c2ccc(Cl)cc2)cc1` (stereo not shown) [Example 82, 2-{[4-(2-butynyloxy)phenyl]sulfonyl}-2-(4-chlorophenyl)-N-hydroxyacetamide], the IC50 in experiment [1] (setting [6]) worked out at 108 nM; in experiment [2] (IC50, read-out: MMP13) it was 5060 nM. For the same compound, the inhibition at 10 µM in experiment [3] was found to be 27.1%; in experiment [4], 38%. Also, the inhibition at 3 µM in experiment [5] came to 14%.
As to `CC#CCOc1ccc(S(=O)(=O)C(CCCCCC#N)C(=O)NO)cc1` (stereo not shown) [Example 72, 2-{[4-(2-butynyloxy)phenyl]sulfonyl}-7-cyano-N-hydroxy heptanamide], the IC50 is 14.2 nM in experiment [1] (setting [6]); 341 nM in experiment [2] (IC50, read-out: MMP13); 1360 nM in experiment [4]. In addition, in experiment [3], the inhibition at 10 µM came to 46.2%. The inhibition at 3 µM in experiment [5] turned out to be 54%.
Turning to `CC#CCOc1ccc([S+]([O-])C(C(=O)NO)C2CCCCC2)cc1` (stereo not shown) [Example 74, 2-{[4-(2-butynyloxy)phenyl]sulfinyl}-2-cyclohexyl-N-hydroxyacetamide], the IC50 in experiment [1] (setting [6]) was determined as 52 nM; in experiment [2] (IC50, read-out: MMP13), 93.5 nM; in experiment [3] it was 1500 nM; in experiment [4] it was 336 nM. The inhibition at 3 µM in experiment [5] amounted to 31%.
Turning to `CC#CCOc1ccc(S(=O)(=O)C(C(=O)NO)C2CCCCC2)cc1` (stereo not shown) [Example 75, 2-{[4-(2-butynyloxy)phenyl]sulfonyl}-2-cyclohexyl-N-hydroxyacetamide], the IC50 in experiment [2] (IC50, read-out: MMP13) is 708 nM. The inhibition at 10 µM in experiment [3] amounted to 34.6%; in experiment [4], 68.2%. Also, in experiment [5], the inhibition at 3 µM was 39%.

The values above are taken from patent EP1147080B1 (Wyeth Holdings Corporation, priority 1999, dated 2000).
